Measurements as given in patent US12655106B2 (Eikonizo Therapeutics, Inc., priority 2021, dated 2026).

Key:
Full length Human HDAC8 = target: T1, Full length Human HDAC8 (Homo sapiens, UniProt Q9BY41); test: Caliper endpoint assay for HDAC enzymatic activity (HDAC8); type: biochemical; conditions: in vitro enzymatic, 30 min pre-incubation, 1 μM substrate peptide
T1 construct: Full length Human HDAC8; HIS (N); host or cells: baculovirus expression system
T1 sequence (Q9BY41 1-377): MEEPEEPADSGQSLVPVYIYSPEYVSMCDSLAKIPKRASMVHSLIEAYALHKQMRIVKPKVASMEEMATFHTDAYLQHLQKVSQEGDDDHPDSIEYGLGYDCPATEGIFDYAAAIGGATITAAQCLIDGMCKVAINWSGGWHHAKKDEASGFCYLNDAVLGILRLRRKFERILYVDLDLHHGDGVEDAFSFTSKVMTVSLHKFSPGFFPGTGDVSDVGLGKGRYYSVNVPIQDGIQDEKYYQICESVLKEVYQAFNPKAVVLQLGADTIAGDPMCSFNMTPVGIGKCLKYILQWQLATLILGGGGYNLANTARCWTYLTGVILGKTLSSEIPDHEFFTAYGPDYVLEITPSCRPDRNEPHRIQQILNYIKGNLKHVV

Full length Human HDAC6 = target: T2, Full length Human HDAC6 (Homo sapiens, UniProt Q9UBN7); test: Caliper endpoint assay for HDAC enzymatic activity (HDAC6); type: biochemical; conditions: for IC50: in vitro enzymatic, Caliper endpoint assay, 30 min pre-incubation, 1 μM substrate peptide; for Selectivity (6 v 8): ratio of HDAC8 IC50/HDAC6 IC50
T2 construct: Full length Human HDAC6; FLAG (C); host or cells: baculovirus expression system
T2 sequence (Q9UBN7 1-1215): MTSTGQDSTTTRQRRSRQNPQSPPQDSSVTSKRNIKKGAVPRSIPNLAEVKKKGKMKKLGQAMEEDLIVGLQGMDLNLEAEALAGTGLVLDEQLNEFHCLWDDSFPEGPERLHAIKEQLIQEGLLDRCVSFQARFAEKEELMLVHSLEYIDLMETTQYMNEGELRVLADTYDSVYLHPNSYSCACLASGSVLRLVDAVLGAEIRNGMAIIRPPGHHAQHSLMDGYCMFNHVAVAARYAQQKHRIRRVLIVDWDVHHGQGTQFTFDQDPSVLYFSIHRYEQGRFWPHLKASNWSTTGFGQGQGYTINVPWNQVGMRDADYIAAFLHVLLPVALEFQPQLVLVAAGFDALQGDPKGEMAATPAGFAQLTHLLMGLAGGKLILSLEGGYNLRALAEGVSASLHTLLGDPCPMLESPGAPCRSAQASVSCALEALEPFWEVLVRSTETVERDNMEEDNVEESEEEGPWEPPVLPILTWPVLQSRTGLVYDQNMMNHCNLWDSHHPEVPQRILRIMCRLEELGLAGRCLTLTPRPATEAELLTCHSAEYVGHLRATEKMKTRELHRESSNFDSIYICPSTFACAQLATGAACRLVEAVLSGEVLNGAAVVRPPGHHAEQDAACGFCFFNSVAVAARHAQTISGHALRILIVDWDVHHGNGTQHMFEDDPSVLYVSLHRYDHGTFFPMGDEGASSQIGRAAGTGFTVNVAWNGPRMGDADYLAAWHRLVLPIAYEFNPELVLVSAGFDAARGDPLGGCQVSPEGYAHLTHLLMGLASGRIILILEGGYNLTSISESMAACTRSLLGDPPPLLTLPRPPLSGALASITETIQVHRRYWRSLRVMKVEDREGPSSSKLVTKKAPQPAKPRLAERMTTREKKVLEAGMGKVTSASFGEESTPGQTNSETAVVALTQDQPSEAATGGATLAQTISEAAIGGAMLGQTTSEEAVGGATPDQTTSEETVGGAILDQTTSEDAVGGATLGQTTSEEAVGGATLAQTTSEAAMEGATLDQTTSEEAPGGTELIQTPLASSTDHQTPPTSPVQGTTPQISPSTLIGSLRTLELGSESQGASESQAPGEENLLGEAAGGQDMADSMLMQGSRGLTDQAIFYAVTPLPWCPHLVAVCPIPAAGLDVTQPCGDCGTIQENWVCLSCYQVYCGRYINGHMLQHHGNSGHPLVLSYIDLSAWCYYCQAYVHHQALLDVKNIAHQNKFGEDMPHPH

| IC50 (Full length Human HDAC8) [nM] | IC50 (Full length Human HDAC6) [nM] | Selectivity (6 v 8) (Full length Human HDAC6) | SMILES |
| --- | --- | --- | --- |
| 10000 to 100000 | 1 to 100 | IV (IV: >100-1000) | O=C(NO)c1cc(F)c2c(c1)CCN(C1CC3(CCCCN3C3CC3)C1)C2 (stereo not drawn) [Compound 353, 2-(5-cyclopropyl-5-azaspiro[3.5]nonan-2-yl)-8-fluoro-3,4-dihydro-1H-isoquinoline-6-carbohydroxamic acid] |
| 1000 to 10000 | 1 to 100 | IV (IV: >100-1000) | CC[C@H]1Cc2c(F)cc(C(=O)NO)cc2CN1C[C@H]1CCCCO1 (single isomer, unassigned) [Compound 231] |
